Test results from article PMC12040169 (PLOS Biology, 2025).

assay: in vitro; details: human, hela cells, % viability

Row | SMILES | viability at 28.5 h, 10 µM [%]
1 | Cc1ccc2oc(-c3cc(NC(=O)Cn4cnc5c(=O)n(C)c(=O)n(C)c54)ccc3O)nc2c1 [CBK267112] | 95.1
2 | CCn1cc(C(=O)O)c(=O)c2cnc(N3CCN(C(=S)NC(=O)C4c5ccccc5Oc5ccccc54)CC3)nc21 [CBK267114] | 91.6
3 | COc1ccc(NC(=O)CC(C(=O)O)N2CCCCC2)cc1 (centres unmarked) [CBK267115] | 101
4 | O=C(O)CC(NCc1ccccc1)C(=O)Nc1ccccc1Br (centres unmarked) [CBK267118] | 98
5 | Cc1ccc(C)c(NC(=O)CC2C(=O)N(c3ccccc3)C(=S)N2Cc2ccco2)c1 (centres unmarked) [CBK267119] | 94.3
6 | Cc1cc(C)nc(Nc2n[nH]c(-c3cccnc3)n2)n1 [CBK267120] | 98
7 | Cc1nn(Cc2c(F)cccc2Cl)c(C)c1NC(=S)Nc1ccc(S(N)(=O)=O)cc1 [CBK267121] | 101
8 | CC(=O)Nc1ccc(S(=O)(=O)NCc2ccc3[nH]c4c(c3c2)CCCC4)cc1 [CBK267122] | 87.1
9 | O=C(Oc1ccc(N(C(=O)c2ccncc2)S(=O)(=O)c2cccc3cccnc23)cc1)c1ccncc1 [CBK267123] | 89.5
10 | CC(C)N(Cc1nc(-c2ccc(Cl)cc2)no1)C(=O)COc1ccc(Br)cc1Cl [CBK267126] | 111
11 | O=C(O)CSc1nc2ccccc2n1CC(=O)O [CBK267128] | 102
12 | FC(F)(F)c1ccccc1NC(=S)Nc1ncn(Cc2ccc(Cl)c(Cl)c2)n1 [CBK267130] | 87.1
13 | Cc1cc(C)nc(Nc2n[nH]c(-c3ccc(N)cc3)n2)n1 [CBK267131] | 99.5
14 | CCN1CCN(C(=O)c2ccc(CN(c3ccc(C)c(C)c3)S(C)(=O)=O)cc2)CC1 [CBK267132] | 92.6
15 | Cc1nn2c(-c3ccc(NC(=O)c4cccs4)cc3)nnc2c2ccccc12 [CBK267134] | 89.6
16 | CCn1c2ccccc2n2c(SCCC(=O)O)nnc12 [CBK267135] | 102
17 | O=C(CN(c1ccccc1)S(=O)(=O)c1ccccc1[N+](=O)[O-])Nc1ccc(C(F)(F)F)cc1 [CBK267137] | 64.6
18 | Cc1cc(=O)oc2cc(NC(=S)NNC(=O)c3ccc4c(c3)c(C)c(C)n4Cc3ccccc3)ccc12 [CBK267138] | 89.6
19 | CCOc1ccccc1NC(=O)Nc1ncccc1C [CBK267140] | 85.3
20 | O=C(O)CC(NCc1ccccc1)C(=O)Nc1ccc(Cl)cc1 (centres unmarked) [CBK267141] | 95.4
21 | CC(C)(O)C#Cc1ccc(C(=O)NCCCNC(=O)c2ccc(C#CC(C)(C)O)s2)s1 [CBK267142] | 93.8
22 | CCn1c(COc2cccc(C)c2)nnc1SCC(=O)c1ccccc1 [CBK267143] | 97.4

Row | SMILES | viability at 28.5 h, 10 µM [%]
23 | CSc1nnc(Cc2nnc(SC)n2-c2ccccc2)n1-c1ccccc1 [CBK267145] | 105
24 | Cc1cccnc1Nc1nc(-c2sc(N)nc2C)cs1 [CBK267147] | 90.3
25 | CCn1c(SCC(=O)NC2CCCCC2C)nnc1-c1cc2cccc(OC)c2o1 (centres unmarked) [CBK267148] | 89.5
26 | O=C(Nc1ccccc1Cl)c1ccc(NCCN2C(=O)c3ccccc3C2=O)c([N+](=O)[O-])c1 [CBK267149] | 95.8
27 | Cc1cc(Br)cc(C)c1OCC(=O)NNC(=O)Cc1cccc2ccccc12 [CBK267151] | 95.2
28 | CCn1c(S)nnc1CNC(=O)c1ccc(Cl)cc1Cl [CBK267152] | 94.3
29 | Cc1cccc(OCc2nnc(SCC(=O)Nc3cccc4ccccc34)o2)c1C [CBK267153] | 108
30 | COc1c(C)cc(Br)cc1C(=O)Nc1ccccc1-c1nc2ccccc2s1 [CBK267155] | 99.8
31 | Cc1cccc(C)c1NC(=O)CCC(=O)OCc1ccccc1 [CBK267158] | 102
32 | Cc1ccc(NC(=O)c2cc([N+](=O)[O-])ccc2NCCN2C(=O)c3ccccc3C2=O)cc1 [CBK267159] | 87.5
33 | COc1ccc(S(=O)(=O)N2CCC(C(=O)O)CC2)cc1Cl [CBK267162] | 94.9
34 | O=C(CC1NC(=O)NC1=O)Nc1cccc2ccccc12 (centres unmarked) [CBK267164] | 90.3
35 | NC(=O)C1(N2CCCCC2)CCN(C(=S)Nc2ccc(F)c(Cl)c2)CC1 [CBK267165] | 97.4
36 | COc1cc(/C=C/c2nc(O)c([N+](=O)[O-])c(=O)[nH]2)ccc1OCC(=O)N1CCOCC1 [CBK267168] | 96.8
37 | COc1ccc(Nc2nc(-c3sc(C)nc3C)cs2)c(OC)c1 [CBK267170] | 46.5
38 | Nc1ccc(-c2nnc(SCC(=O)Nc3ccc(Br)cc3F)n2-c2ccccc2)cc1 [CBK267175] | 98.8
39 | COc1ccc(S(=O)(=O)N(C)CC(=O)O)cc1C [CBK267176] | 108
40 | O=c1oc2cc(S(=O)(=O)NCc3ccco3)ccc2c2ccc(S(=O)(=O)NCc3ccco3)cc12 [CBK267177] | 96.5
41 | O=C(CNS(=O)(=O)c1cccc(Cl)c1)Nc1ccc(-c2nc3ccccc3s2)cc1 [CBK267178] | 97.5
42 | CCCOc1ccccc1-c1nnc(SCCC(=O)O)[nH]1 [CBK267182] | 93.9
43 | COC(=O)c1sccc1NC(=O)Cn1nnc(-c2ccc(C)cc2)n1 [CBK267183] | 98.4
44 | c1ccc(-c2csc(Nc3cccnc3)n2)nc1 [CBK267184] | 107

Row | SMILES | viability at 28.5 h, 10 µM [%]
45 | O=C(CSc1nnc(COc2ccccc2)o1)N1CCN(c2ccccc2)CC1 [CBK267185] | 97.5
46 | Nc1ncnc(NNC(=O)CNC(=O)c2ccccc2C(F)(F)F)c1[N+](=O)[O-] [CBK267186] | 94.1
47 | COC(=O)c1ccc(N2C(=O)CC(SCCc3nc4ccccc4[nH]3)C2=O)cc1 (centres unmarked) [CBK267188] | 88.5
48 | Cc1ccc2oc3c(c(=O)c2c1)C(c1ccc(OCC(N)=O)cc1)N(Cc1ccc2c(c1)OCO2)C3=O (centres unmarked) [CBK267189] | 91.3
49 | O=C(CN1CCNCC1)Nc1ccc(Oc2ccccc2)cc1 [CBK267191C] | 102
50 | COc1ccc(Cl)cc1NC(=S)NCCc1ccc(S(N)(=O)=O)cc1 [CBK267198] | 85.6
51 | Nc1c(C(=O)NCc2ccccc2)c2nc3ccccc3nc2n1CCO [CBK267201] | 108
52 | CCOc1ccccc1-n1c(CN2CCN(C(=O)c3ccco3)CC2)nc2ccccc2c1=O [CBK267203] | 86.4
53 | Cc1cccc(OCc2nnc(SCC(=O)Nc3cc(C(F)(F)F)ccc3Cl)o2)c1C [CBK267204] | 85.3
54 | CC1(C)Cc2nc(-c3ccccc3)nc(SCC(=O)NCCc3ccccc3)c2CO1 [CBK267205] | 86.7
55 | O=C(c1ccco1)N1CCN(c2ncnc3scc(-c4cccs4)c23)CC1 [CBK267208] | 110
56 | O=C(Nc1ccc(N2CCN(Cc3ccccc3F)CC2)cc1)c1cc2ccccc2o1 [CBK267210] | 87.4
57 | O=C(NCC1CCCO1)c1ccc(CNS(=O)(=O)c2cccc(Cl)c2)cc1 (centres unmarked) [CBK267219] | 88.6
58 | Cc1nn(-c2nc3ccccc3s2)c(O)c1C1OC(=O)c2ccccc21 (centres unmarked) [CBK267220] | 95
59 | CC(C)c1ccc(OCC(=O)NNC(=O)c2ccco2)c(Br)c1 [CBK267224] | 86.7
60 | O=C(c1ccco1)N1CCN(Cc2nc3ccccc3c(=O)n2-c2ccc(F)cc2)CC1 [CBK267226] | 94.3
61 | Cc1nc2ccc(NC(=S)N3CCN(c4ccccn4)CC3)cc2nc1C [CBK267227] | 67.1
62 | CCOc1ccc2nc(SCC(=O)Nc3c(C)n(C)n(-c4ccccc4)c3=O)sc2c1 [CBK267229] | 95.5
63 | Cc1ccccc1OCc1nn2c(COc3ccccc3)nnc2s1 [CBK267230] | 85.4
64 | CCOC(=O)c1c(NC(=O)CSc2nc[nH]n2)sc2c1CCCCC2 [CBK267231] | 90.8
65 | COC(=O)c1ccc(NC(=S)N2CCC(C(N)=O)CC2)cc1 [CBK267232] | 90.2
66 | C=CCOc1ccccc1CNc1nc[nH]n1 [CBK267234] | 93.7

Row | SMILES | viability at 28.5 h, 10 µM [%]
67 | Cc1cc(Sc2ncnc(N)c2[N+](=O)[O-])ncn1 [CBK267235] | 36.7
68 | O=C(Nc1nnn[nH]1)C1(c2ccc([N+](=O)[O-])cc2)CCCC1 [CBK267237] | 93.7
69 | O=C(CCc1nc2ccccc2[nH]1)Nc1ccc(F)cc1 [CBK267238] | 95.5
70 | O=C(CSc1nnc(-c2ccncc2)n1-c1ccccc1)N1CCN(Cc2ccccc2)CC1 [CBK267240] | 105
71 | COc1ccc(CN2CC(C(=O)O)CC2=O)cc1 (centres unmarked) [CBK267242] | 96.4
72 | O=C(NCCCN1CCOCC1)C(=O)NC1CC1 [CBK267243] | 101
73 | Fc1cccc(Cl)c1CNc1ccc(CNc2ncn[nH]2)cc1 [CBK267245] | 93.1
74 | Cc1ccc(Cl)cc1NC(=O)CC1NCCNC1=O (centres unmarked) [CBK267246] | 97
75 | Cc1ccc(-c2nn3c(C)nnc3s2)cc1NC(=O)c1ccc([N+](=O)[O-])o1 [CBK267247] | 95.2
76 | CC(C)(C)c1ccc(S(=O)(=O)NCc2ccc(C(=O)NCc3ccccn3)cc2)cc1 [CBK267248] | 115
77 | O=C(NCc1ccccn1)c1ccc(NS(=O)(=O)c2cccc(Cl)c2)cc1 [CBK267249] | 111
78 | O=C(Nc1ccc(N2CCN(Cc3ccccc3F)CC2)cc1)c1cccnc1 [CBK267250] | 106
79 | N#C/C(=C\c1c[nH]nc1-c1ccccc1)c1nc(-c2cccc([N+](=O)[O-])c2)cs1 [CBK267252] | 96.8
80 | O=C(Nc1ccc2nc(-c3ccco3)c(-c3ccco3)nc2c1)N1CCCCCC1 [CBK267253] | 85.4
81 | Nc1ncnc(Nc2ccc(F)cc2Cl)c1[N+](=O)[O-] [CBK267255] | 93.1
82 | Cc1ccccc1C(=O)Nc1cccc(NC(=O)c2ccc(-c3cc4ccccc4oc3=O)cc2)c1 [CBK267256] | 118
83 | CN1CCN(C(=O)c2ccc3nc(-c4ccccc4)c(-c4ccccc4)nc3c2)CC1 [CBK267257] | 98.7
84 | COC(=O)COc1ccc(Oc2nc(N(C)C)nc(N3CCOCC3)n2)nn1 [CBK267258] | 104
85 | COc1ccc(CCNc2nc(-c3ccccn3)cs2)cc1OC [CBK267260] | 100
86 | Nc1ncnc(NCCCc2ccccc2)c1[N+](=O)[O-] [CBK267261] | 88.9
